In patent US6780418B1, “Reagents and immunoassay for the detection and quantitative determination of mycothiol and precursors thereof” (The Regents of the University of California, priority 1997, dated 2004):

Legend:
anti-mycothiol antibody = test: ELISA of Example 4: thiol bound to maleimide-activated BSA, detected with affinity-purified anti-MSH antibody; type: binding, rabbit; settings: for ELISA result (recognition by the anti-mycothiol antibody): thiol at the 10 pmol level
Method: Known amounts of pure MSH (typically from 0 to 1 pmol/well) were reacted with maleimide-activated BSA (Pierce); maleimide activation levels were 16-19 mol maleimide per mol BSA. The maleimide-activated BSA was reconstituted to 10 mg/ml and this stock solution stored at −70° C. until needed. The stock solution was diluted to a working concentration of 5 ng/μl just before use and kept chilled on ice. MSH from the concentrated stock solution in 0.1% TFA was diluted into TBS (Tris-buffered saline: 0.1 M Tris, pH 7.3, 0.15 M NaCl, 0.04% NaN3) on ice and the diluted samples (40 μl per well) immediately added to the maleimide-activated BSA (60 μl per well). A “zero” standard consisted of TBS in place of an MSH solution. In practice, 168 μl of thiol standard were added to 252 μl of maleimide-activated BSA solution. Samples of unknown thiol content were reacted with maleimide-activated BSA in the same manner, providing a small excess volume for pipetting of quadruplicate samples of 100 μl per well. After 2-hour incubation at room temperature, the thiol-BSA samples were aliquoted (100 μl per well) into Immulon-4 microplate wells and allowed to bind overnight at 4° C. Unbound protein was removed by gentle aspiration with mild vacuum and the wells blocked for 2 hours at room temperature with 1% v/v fish-skin gelatin in TBS. The wells were drained, washed once with TBST (TBS plus 0.05% Tween-20), and drained. Washes involved filling wells to the top with wash buffer followed by gentle aspiration to drain the wells. Primary antibody (affinity-purified anti-MSH, 100 μl per well) was added and the plate incubated for 4 hours at room temperature. The wells were drained, washed twice with TBST, and drained. Secondary antibody (goat anti-rabbit [whole IgG] F(ab′)2 fragments conjugated to bovine intestinal alkaline phosphatase, 100 μl per well) was added and the plate incubated for 1 hour at room temperature. The wells were drained, washed twice with TBST, twice with TBS, and drained. The alkaline phosphatase substrate (3.8 mM p-nitrophenylphosphate in 0.2 M Tris, pH 9.8, 200 μl per well) was added and the plate incubated 30 minutes at room temperature. The reaction was quenched by addition of 50 μl per well stop solution (4 N NaOH). The plate was read at 405 nm on a microplate reader (Model EL311, Bio-Tek Instruments) that was programmed to automatically subtract blank values read from wells that received only the blocking agent, wash solutions, p-nitrophenyl phosphate, and stop solution.
Since reaction of typical cellular constituents with maleimide-BSA is largely limited to thiols, it was considered important to ascertain whether any typical biological thiols would produce false-positive assay results.
In order to test whether the anti-mycothiol antibody recognizes component parts of the mycothiol molecule we also tested the ELISA on N-acetyl-L-cysteine, L-cysteinyl-glucosamine, (2-L-cysteinyl)amido-2-deoxy-α-D-glucopyranose), and N-acetyl-L-cysteinyl-glucosamine (2-N-acetyl-L-cysteinyl)amido-2-deoxy-α-D-glucopyranose).

M. smegmatis mc^2155 = test: Effect of nutrient supplementation upon mycothiol intermediate levels and growth; type: cell-based, Mycobacterium smegmatis
Method: To test whether an increase in cellular Ins content would influence the levels of MSH or potential MSH intermediates, we examined M. smegmatis mc^2155 incubated with Ins. We initially tested Ins uptake by adding 37 μM ^14C-inositol to a culture at A600=1.0 and determining the loss of radiolabel from the medium and its appearance in cells. After 2.5 h, 77% of the counts had been lost from the medium to the cells, showing that M. smegmatis efficiently imports inositol. Next we harvested cells after growth to mid log phase, resuspended them at A600=1.05 in Middlebrook 7H9 media with glucose and 1 MM Ins at 37° C., and took samples for analysis at 0, 0.5 and 2.5 h (FIG. 17A).
To test whether changes in cellular Cys levels would influence MSH or MSH intermediates, we incubated cells in medium containing 10 mM AcCys. Since AcCys is readily taken up by passive diffusion we expected this to produce markedly elevated levels of cellular AcCys and, through deacylation, Cys. […] The Cys-GlcN-Ins content was elevated 20-fold over normal immediately after the start of incubation but then fell a factor of 70 over the next 2.5 h. Least affected was the MSH content which was elevated ˜40% after 2.5 h.

[1] = target: ATP-dependent ligase activity (Mycolicibacterium smegmatis, UniProt A0QZY0); test: Assay of ATP-dependent ligase activity with GlcN-Ins plus Cys/AcCys in cell extract supernatant; type: biochemical, M. smegmatis; settings: for MSH content / Cys-GlcN-Ins concentration: 100 μM substrate, 50 μM GlcN-Ins, 1 mM ATP; for Cys-GlcN-Ins concentration: pH 7.5, 60 min
[2] = type: physicochemical
Method: The crude extract was purified by reversed-phase HPLC on a preparative C 18 column, 25 mm×250 mm (Vydac) by isocratic elution with 0.1% trifluoracetic acid (TFA) in ultrapure water at a flow rate of 10 ml/min. Under these conditions MSH eluted as the free thiol at 8 minutes and as its disulfide (MSSM) at 12 minutes. Thiol concentration was determined by titration with DTNB. Purified MSH was stored as a concentrated (0.11 M) stock solution in 0.1% TFA (aqueous), frozen at −70° C.
To produce biotinylated MSH suitable for use as a standard, the following procedure was carried out: 5.0 μL of 3.7 mM pure MSH in 0.1% TFA was added to 12.3 μL 1.5 mM MPB in DMSO/acetonitrile/100 mM phosphate buffer, pH 7.0 (1:4:5). The mixture was allowed to react 1 hour at room temperature. To determine the extent of biotinylation, unreacted MSH was measured by titration with DTNB. The standard was stored in 1.0 μL aliquots frozen at −70° C. For use in ELISA analyses, the standard was diluted to a concentration of 1.0 μM in Tris-buffered saline, pH 7.3, containing 0.04% w/v sodium azide, 0.05% v/v Tween 20 and 0.1% w/v BSA (TBSTB); this solution was stable for several (>6) months when stored refrigerated as indicated by consistency of ELISA measurements.

Chain of ATP-dependent ligase activity (A0QZY0 whole entry): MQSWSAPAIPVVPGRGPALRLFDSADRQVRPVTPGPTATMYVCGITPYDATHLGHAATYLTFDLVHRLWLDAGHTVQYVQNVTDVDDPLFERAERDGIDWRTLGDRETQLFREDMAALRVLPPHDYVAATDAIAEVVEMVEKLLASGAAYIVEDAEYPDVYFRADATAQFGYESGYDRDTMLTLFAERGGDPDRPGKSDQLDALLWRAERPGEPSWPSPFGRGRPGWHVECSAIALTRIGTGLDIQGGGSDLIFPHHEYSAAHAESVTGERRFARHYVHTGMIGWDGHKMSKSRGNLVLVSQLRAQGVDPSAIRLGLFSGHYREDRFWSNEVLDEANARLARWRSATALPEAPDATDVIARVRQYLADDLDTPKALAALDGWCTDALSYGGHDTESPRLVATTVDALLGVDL

## CC(=O)N[C@@H](CS)C(=O)O [AcCys, N-acetyl-cysteine]
anti-mycothiol antibody
  ELISA result (recognition by the anti-mycothiol antibody): negative
M. smegmatis mc^2155; 10 mM AcCys, 2.5 h
  effect on growth: significantly inhibits growth
M. smegmatis mc^2155; 10 mM AcCys, after 2.5 h
  MSH content elevated: ~40%
M. smegmatis mc^2155; 10 mM AcCys, immediately after the start of incubation
  Cys-GlcN-Ins content elevated over normal: 20 fold
M. smegmatis mc^2155; 10 mM AcCys, over the 2.5 h incubation period
  change of A600 value: 5%
M. smegmatis mc^2155; 10 mM AcCys, over the next 2.5 h
  fall of Cys-GlcN-Ins content (factor): 70
M. smegmatis mc^2155; medium containing 10 mM AcCys
  Cys level increased: 50 fold
  H2S level: roughly doubled
  cellular AcCys level elevated over the normal level: 1000 fold
  decrease in GlcN-Ins content: 5- to 10 fold
[1]; 100 μM AcCys, by 60 min
  [Cys]/[AcCys]: ~3
[1]; 60 min
  MSH content: 15 µM
[1]
  Cys-GlcN-Ins concentration: 20 µM

## CC(=O)N[C@@H](CS)C(=O)N[C@@H]1[C@@H](O)[C@H](O)[C@@H](CO)O[C@@H]1O [AcCys-GlcN, 2-(N-acetyl-L-cysteinyl)amido-2-deoxy-α-d-glucopyranoside]
anti-mycothiol antibody; of that for MSH
  sensitivity of the assay relative to that for MSH: about 4%
anti-mycothiol antibody
  ELISA result (recognition by the anti-mycothiol antibody): positive

## N[C@@H](CS)C(=O)O [Cys, L-cysteine]
anti-mycothiol antibody
  ELISA result (recognition by the anti-mycothiol antibody): negative
[1]; 0 min
  MSH content: 15 µM
[1]; 60 min
  MSH content: 13 µM
[1]
  Cys-GlcN-Ins concentration: 26 µM

## N[C@@H](CS)C(=O)N[C@@H]1[C@@H](O)[C@H](O)[C@@H](CO)O[C@@H]1O [Cys-GlcN, 2-(L-cysteinyl)amido-2-deoxy-α-D-glucopyranoside]
anti-mycothiol antibody
  ELISA result (recognition by the anti-mycothiol antibody): negative

## O[C@H]1[C@H](O)[C@@H](O)[C@H](O)[C@@H](O)[C@H]1O [Ins, myo-inositol]
M. smegmatis mc^2155; 1 mM Ins, 37° C., 0 to 2.5 h
  MSH and H2S levels: did not change to a significant extent
M. smegmatis mc^2155; 1 mM Ins, 37° C., at 0.5 h
  GlcN-Ins content relative to normal: about half normal
M. smegmatis mc^2155; 1 mM Ins, 37° C., at 2.5 h
  GlcN-Ins content relative to normal: returning to normal
M. smegmatis mc^2155; 1 mM Ins, 37° C., initially (0 h)
  GlcN-Ins content relative to normal: more than 3 fold
M. smegmatis mc^2155; 1 mM Ins, over the 2.5 h incubation
  increase of A600 value: 40%

## CC(=O)N[C@@H](CS)C(=O)N[C@H]1[C@@H](OC2[C@H](O)[C@H](O)C(O)[C@H](O)[C@H]2O)O[C@H](CO)[C@@H](O)[C@@H]1O (stereo partly drawn) [MSH, 1-D-myo-inosityl-2-(N-acetyl-L-cysteinyl)amido-2-deoxy-α-D-glucopyranoside]
[2]
  stability on storage: stable as the free thiol for many months

## CC(C)(COP(=O)(O)OP(=O)(O)OC[C@H]1O[C@@H](n2cnc3c(N)ncnc32)[C@H](O)[C@@H]1OP(=O)(O)O)[C@@H](O)C(=O)NCCC(=O)NCCS [coenzyme A, reference compound]
anti-mycothiol antibody
  ELISA result (recognition by the anti-mycothiol antibody): negative

## N[C@@H](CCC(=O)N[C@@H](CS)C(=O)NCC(=O)O)C(=O)O [glutathione, reference compound]
anti-mycothiol antibody
  ELISA result (recognition by the anti-mycothiol antibody): negative

## CC(C)(CO)[C@@H](O)C(=O)NCCC(=O)NCCS [pantetheine, reference compound]
anti-mycothiol antibody
  ELISA result (recognition by the anti-mycothiol antibody): negative

## ^14C-inositol [reference compound]
M. smegmatis mc^2155; 37 μM, culture at A600=1.0, after 2.5 h
  counts lost from the medium to the cells (uptake): 77%
